Test results taken from ChEMBL document CHEMBL3881525, “Analogs of dehydrophenylahistins and their therapeutic use” (2007).
Active and inactive are the calls of the source. The calls are words filed in the database; no cut-off is given here.

What was measured:
[1] = Cytotoxicity against human HT-29 cells assessed as reduction in cell viability measured after 48 hrs by resazurin dye-based fluorometric analysis; assay type: functional
[2] = Cytotoxicity against human HT-29 cells assessed as reduction in cell viability measured after 48 hrs by resazurin dye-based fluorometric analysis relative to control; assay type: functional
Tubulin (Homo sapiens) [3] = biological target: T1, Tubulin (Homo sapiens) (UniProt P68371+Q9H4B7+P0DPH7+P68366+Q13509+Q71U36+P04350+Q3ZCM7+P07437+P68363+Q9BQE3+Q6PEY2+Q13885+Q9BVA1+Q9BUF5); experiment: Induction of microtubule depolymerization in HUVEC at 1.5 to 5 uM by turbidity spectroscopic analysis; assay type: cell-based
MES-SA = experiment: Ratio of EC50 for taxol-resistant human MES-SA/DX5 cells expressing MDR1 mRNA and P-gp to EC50 for taxol-sensitive human MES-SA cells; assay type: functional
[4] = Antiproliferative activity against taxol-resistant human MES-SA/Dx5 cells expressing MDR1 mRNA and P-gp; assay type: functional, cell-based
HL-60 = experiment: Ratio of EC50 for human mitoxantrone-sensitive HL60 cells to EC50 for human mitoxantrone-resistant HL60/MX2 cells; assay type: functional
Tubulin (Homo sapiens) [5] = biological target: T1, Tubulin (Homo sapiens); experiment: Induction of microtubule depolymerization in HUVEC at 20 nM measured after 30 mins by DAPI-staining based immunofluorescence analysis; assay type: cell-based
[6] = Cytotoxicity against human PC3 cells assessed as reduction in cell viability measured after 48 hrs by resazurin dye-based fluorometric analysis relative to control; assay type: functional, PC-3; set-up: concentration or dose not given beside the values
[7] = Antiproliferative activity against human mitoxantrone-sensitive HL60 cells; assay type: functional, cell-based; conditions: HL-60
[8] = Antiproliferative activity against human mitoxantrone-resistant HL60/MX2 cells; assay type: functional, cell-based; conditions: HL-60

Question: Which EC50 ([1]; Homo sapiens, HT-29, 48 h) does the source give for `Cc1[nH]cnc1/C=c1\[nH]c(=O)/c(=C/c2nc[nH]c2C(C)(C)C)[nH]c1=O.O=C(O)C(F)(F)F.O=C(O)C(F)(F)F` here?
Answer: 2350 to 2790 nM

Question: And the “inhibition (INH)” value [2]?
Answer: 84%

Question: With `CC(C)(C)c1[nH]cnc1/C=c1\[nH]c(=O)/c(=C/c2sccc2B(O)O)[nH]c1=O.O=C(O)C(F)(F)F` as the molecule, how does the “inhibition (INH)” value [2] read?
Answer: 88%

Question: For `CC(C)(C)c1[nH]cnc1/C=c1\[nH]c(=O)/c(=C/c2cc(Cl)ccc2O)[nH]c1=O.O=C(O)C(F)(F)F`, which EC50 ([1]; Homo sapiens, HT-29, 48 h) is on record?
Answer: > 2000 nM

Question: And the “inhibition (INH)” value [2]?
Answer: 37%

Question: With `COc1ccsc1/C=c1\[nH]c(=O)/c(=C/c2nc[nH]c2C(C)(C)C)[nH]c1=O.O=C(O)C(F)(F)F` as the molecule, how does the “inhibition (INH)” value [2] read?
Answer: 88%

Question: Which “inhibition (INH)” value [2] does the source give for `CC(C)(C)c1ccc(O)c(/C=c2\[nH]c(=O)/c(=C/c3nc[nH]c3C(C)(C)C)[nH]c2=O)c1.O=C(O)C(F)(F)F` here?
Answer: 80%

Question: Which Activity (Tubulin (Homo sapiens) [3]) does the source give for `CC(C)(C)c1ocnc1/C=c1\[nH]c(=O)/c(=C/c2c(F)ccc(F)c2F)[nH]c1=O` here?
Answer: Active

Question: And the “Ratio EC50” value (MES-SA)?
Answer: 1.2

Question: And the IC50 [4]?
Answer: 27 nM

Question: What about the “Ratio EC50” value (HL-60) of the same molecule?
Answer: 1

Question: What about the Activity (Tubulin (Homo sapiens) [5]) of the same molecule?
Answer: Active

Question: With `CC(C)(C)c1[nH]cnc1/C=c1\[nH]c(=O)/c(=C/c2ccc(Br)o2)[nH]c1=O.O=C(O)C(F)(F)F` as the molecule, how does the “inhibition (INH)” value [2] read?
Answer: 87%

Question: Which results are given for `CC(C)(C)c1[nH]cnc1/C=c1\[nH]c(=O)/c(=C/c2cc([N+](=O)[O-])ccc2Cl)[nH]c1=O`?
Answer: EC50 ([1]; Homo sapiens, HT-29, 48 h): 51 to 53.4 nM; inhibition (INH) [2]: 86%; Activity [6]: 100%

Question: Which “inhibition (INH)” value [2] does the source give for `Cc1c(F)cccc1/C=c1\[nH]c(=O)/c(=C/c2nc[nH]c2C(C)(C)C)[nH]c1=O.O=C(O)C(F)(F)F` here?
Answer: 86%

Question: Which “inhibition (INH)” value [2] does the source give for `Cc1ccc(C)c(/C=c2\[nH]c(=O)/c(=C/c3nc[nH]c3C(C)(C)C)[nH]c2=O)c1.O=C(O)C(F)(F)F` here?
Answer: 87%

Question: For `COc1cc(/C=c2\[nH]c(=O)/c(=C/c3nc[nH]c3C(C)(C)C)[nH]c2=O)ccc1F.O=C(O)C(F)(F)F`, which “inhibition (INH)” value [2] is on record?
Answer: 85%

Question: For `CC(C)(C)c1[nH]cnc1/C=c1\[nH]c(=O)/c(=C/c2cc(Br)cs2)[nH]c1=O.O=C(O)C(F)(F)F`, which EC50 ([1]; Homo sapiens, HT-29, 48 h) is on record?
Answer: 1710 nM

Question: And the “inhibition (INH)” value [2]?
Answer: 86%

Question: Which results are given for `COc1ccc(/C=c2\[nH]c(=O)/c(=C/c3nc[nH]c3C(C)(C)C)[nH]c2=O)c(O)c1.O=C(O)C(F)(F)F`?
Answer: EC50 ([1]; Homo sapiens, HT-29, 48 h): > 2000 nM; inhibition (INH) [2]: 8%

Question: Which EC50 ([1]; Homo sapiens, HT-29, 48 h) does the source give for `CC(C)(C)c1ocnc1/C=c1\[nH]c(=O)/c(=C/c2c3ccccc3cc3ccccc23)[nH]c1=O` here?
Answer: > 6230 nM

Question: Which results are given for `CC(C)(C)c1[nH]cnc1/C=c1\[nH]c(=O)/c(=C/c2cccc3c2OCO3)[nH]c1=O.O=C(O)C(F)(F)F`?
Answer: EC50 ([1]; ht-29): 477 to 520 nM; inhibition (INH) [2]: 82%

Question: For `COc1cccc(C)c1/C=c1\[nH]c(=O)/c(=C/c2nc[nH]c2C(C)(C)C)[nH]c1=O`, which EC50 ([1]; Homo sapiens, HT-29, 48 h) is on record?
Answer: 517 nM

Question: For `COc1ccc(O)c(/C=c2\[nH]c(=O)/c(=C/c3nc[nH]c3C(C)(C)C)[nH]c2=O)c1.O=C(O)C(F)(F)F`, which EC50 ([1]; Homo sapiens, HT-29, 48 h) is on record?
Answer: > 2000 nM

Question: What about the EC50 [7] of the same molecule?
Answer: 32 nM

Question: And the “inhibition (INH)” value [2]?
Answer: 25%

Question: What about the EC50 [8] of the same molecule?
Answer: 31 nM

Question: What about the “Ratio EC50” value (HL-60) of the same molecule?
Answer: 1

Question: Which results are given for `CC(C)(C)c1[nH]cnc1/C=c1\[nH]c(=O)/c(=C/c2cc(Cl)ccc2[N+](=O)[O-])[nH]c1=O.O=C(O)C(F)(F)F`?
Answer: EC50 ([1]; Homo sapiens, HT-29, 48 h): 99.7 to 110 nM; EC50 [7]: 28 nM; inhibition (INH) [2]: 86%; EC50 [8]: 19 nM; Ratio EC50 (HL-60): 0.7

Question: With `C=CC(C)(C)c1[nH]cnc1/C=c1\[nH]c(=O)/c(=C/c2ccc(OC)cc2)[nH]c1=O` as the molecule, how does the EC50 ([1]; Homo sapiens, HT-29, 48 h) read?
Answer: 6570 to 6730 nM

Question: And the “inhibition (INH)” value [2]?
Answer: 63%

Question: Which EC50 ([1]; Homo sapiens, HT-29, 48 h) does the source give for `CC(C)(C)c1ccc(O)c(/C=c2\[nH]c(=O)/c(=C/c3ccccc3)[nH]c2=O)c1.O=C(O)C(F)(F)F` here?
Answer: > 2000 nM

Question: And the “inhibition (INH)” value [2]?
Answer: 14%

Question: Which EC50 ([1]; Homo sapiens, HT-29, 48 h) does the source give for `CC(C)(C)c1[nH]cnc1/C=c1\[nH]c(=O)/c(=C/c2ccc(Cl)s2)[nH]c1=O` here?
Answer: 165 to 184 nM

Question: Which EC50 ([1]; ht-29) does the source give for `CC(C)(C)c1[nH]cnc1/C=c1\[nH]c(=O)/c(=C/c2cccc3c2OCO3)[nH]c1=O` here?
Answer: 52 nM

Question: With `CC(C)(C)c1[nH]cnc1/C=c1\[nH]c(=O)/c(=C/c2ccccc2N)[nH]c1=O.O=C(O)C(F)(F)F` as the molecule, how does the “inhibition (INH)” value [2] read?
Answer: 86%

Question: With `Cc1cccc(/C=c2\[nH]c(=O)/c(=C/c3nc[nH]c3C(C)(C)C)[nH]c2=O)c1C.O=C(O)C(F)(F)F` as the molecule, how does the EC50 ([1]; Homo sapiens, HT-29, 48 h) read?
Answer: 2.96 to 3 nM

Question: And the “inhibition (INH)” value [2]?
Answer: 87%

Question: With `CC(C)(C)c1[nH]cnc1/C=c1\[nH]c(=O)/c(=C/c2cc(Br)ccc2O)[nH]c1=O.O=C(O)C(F)(F)F` as the molecule, how does the EC50 ([1]; Homo sapiens, HT-29, 48 h) read?
Answer: > 2000 nM

Question: And the “inhibition (INH)” value [2]?
Answer: 13%

Question: With `CCc1ccc(/C=c2\[nH]c(=O)/c(=C/c3nc[nH]c3C(C)(C)C)[nH]c2=O)o1.O=C(O)C(F)(F)F` as the molecule, how does the EC50 ([1]; Homo sapiens, HT-29, 48 h) read?
Answer: 2420 nM

Question: What about the “inhibition (INH)” value [2] of the same molecule?
Answer: 86%
